Patent publication US9850283B2, “Macrocyclic inhibitors of the PD-1/PD-L1 and CD80(B7-1)/PD-L1 protein/protein interactions” (BRISTOL-MYERS SQUIBB COMPANY, priority 2013, dated 2017)
Where two headings read alike, the source gives them in different places. Starred links: 1 amine or outer side, 2 acyl side, 3 side chain; linkers in the order of their positions; H or OH if unused. Positions of bridges follow the written chain, without caps; N, C: chain ends. Non-standard residues stand in square brackets, D forms with d. Residues, ends and D or L forms follow the SMILES beside them. ξ: configuration not given here. X2 = CCOc1ccc(-c2[nH]c3ccccc3c2C[C@H](N[*:1])C(=O)[*:2])cc1; Ala(indol-4-yl) = N[C@@H](Cc1cccc2[nH]ccc12)C(=O)O; Phe(4-CH2NH2) = NCc1ccc(C[C@H](N)C(=O)O)cc1; ξPro(4R-OH) = O=C(O)C1C[C@@H](O)CN1; Hyp = O=C(O)[C@@H]1C[C@@H](O)CN1; NMeF = CN[C@@H](Cc1ccccc1)C(=O)O; NMehSer = CN[C@@H](CCO)C(=O)O; NMeNle = CCCC[C@H](NC)C(=O)O; ξR = N=C(N)NCCCC(N)C(=O)O; NMeA = CN[C@@H](C)C(=O)O; Orn = NCCC[C@H](N)C(=O)O; Dab = NCC[C@H](N)C(=O)O; Dap = NC[C@H](N)C(=O)O; ξC = NC(CS)C(=O)O; Sar = CNCC(=O)O

Experiments:
[1] = target: T1, LK35.2-hPD-L1 cells / PE-labeled PD-1-Ig (Homo sapiens, UniProt Q9NZQ7); assay: LK35.2-hPD-L1 cell binding high-content screening assay; format: cell-based; conditions: cluster symbol, read-out: CBA IC50 cluster
T1 construct: expressed in transfected cells; host or cells: LK35.2 mouse B cell line
T1 sequence (Q9NZQ7 19-290): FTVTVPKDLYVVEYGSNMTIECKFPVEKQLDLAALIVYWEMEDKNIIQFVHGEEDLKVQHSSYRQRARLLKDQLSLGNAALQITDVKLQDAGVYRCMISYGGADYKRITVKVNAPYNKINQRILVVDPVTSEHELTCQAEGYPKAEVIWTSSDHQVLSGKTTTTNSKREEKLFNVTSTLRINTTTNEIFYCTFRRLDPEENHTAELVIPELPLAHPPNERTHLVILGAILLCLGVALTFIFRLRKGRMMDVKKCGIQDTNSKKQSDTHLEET
Method in brief: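 Fluorescent PD-1-Ig binding to PD-L1-expressing LK35.2 cells, imaged after washing. Conditions: 1 nM PE-PD-1-Ig, 37 °C, 1 h, RPMI with 10% fetal calf serum.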

[2] = target: T2, Human PD-L1/PD-1 (Homo sapiens, UniProt Q9NZQ7); assay: HTRF PD-1-Ig/PD-L1-His binding assay (human PD-L1); conditions: cluster symbol; read-out: HTRF IC50 cluster
T2 construct: made in house; host or cells: HEK293T
T2 sequence (Q9NZQ7 with tags, fused parts or gaps): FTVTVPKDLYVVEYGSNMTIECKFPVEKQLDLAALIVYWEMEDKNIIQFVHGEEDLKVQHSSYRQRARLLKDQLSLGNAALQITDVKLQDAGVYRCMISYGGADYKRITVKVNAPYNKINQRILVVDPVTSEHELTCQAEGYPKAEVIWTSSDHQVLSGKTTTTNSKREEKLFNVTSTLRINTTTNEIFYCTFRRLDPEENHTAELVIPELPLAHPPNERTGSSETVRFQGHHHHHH
Method in brief: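 Steps: truncated PD-1-Ig and PD-L1-His fusions are incubated in dPBS containing 0.1% (w/v) BSA and 0.05% (v/v) Tween-20. Detection antibodies are then added (Eu cryptate anti-Ig at 1 nM final, APC anti-His at 20 nM final), and time-resolved FRET is measured.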

[3] = cell binding assay, cell line not given
[4] = cell line of CBA not given (LK35.2-hPD-L1 or 293T-hPD-L1)

Row | SMILES | IC50 [1, 3] | IC50 [2] | IC50 [1, 4]
1 | CCCC[C@H]1C(=O)N(C)[C@@H](CCCC)C(=O)N[C@@H](C)C(=O)N[C@H](C(=O)NCC(N)=O)CSCC(=O)N[C@@H](Cc2ccc(O)cc2)C(=O)N(C)[C@@H](C)C(=O)N[C@@H](CC(N)=O)C(=O)N2CCC[C@H]2C(=O)N[C@@H](Cc2cnc[nH]2)C(=O)N[C@@H](CCC(N)=O)C(=O)N2C[C@H](O)C[C@H]2C(=O)N[C@@H](Cc2c[nH]c3ccccc23)C(=O)N[C@@H](CO)C(=O)N[C@@H](Cc2c[nH]c3ccccc23)C(=O)N1C [Example 5047] | 4.78 to 72.9 nM | 6.76 to 30.3 nM | 
2 | CCCC[C@H]1C(=O)N(C)CC(=O)N[C@@H](CC(=O)O)C(=O)N[C@@H](C(C)C)C(=O)N(C)[C@@H](Cc2ccccc2)C(=O)N[C@@H](Cc2ccc(O)cc2)C(=O)N(C)CC(=O)N[C@@H](Cc2c[nH]c3ccccc23)C(=O)N[C@@H](Cc2ccc(O)cc2)C(=O)N[C@@H](CC(C)C)C(=O)N[C@H](C(=O)NCC(N)=O)CSCC(=O)N[C@@H](Cc2ccccc2)C(=O)N(C)[C@@H](Cc2ccc(O)cc2)C(=O)N1C [Example 3059] (HELM PEPTIDE1{[O=C(C[*:3])[*:2]].F.[meY].[CCCC[C@@H](C(=O)[*:2])N(C)[*:1]].[Sar].D.V.[meF].Y.[Sar].W.Y.L.C.G.[am]}$PEPTIDE1,PEPTIDE1,1:R3-14:R3$$$V2.0) |  | 6.76 to 30.3 nM | 4.78 to 72.9 nM
3 | CCCC[C@H]1C(=O)N(C)[C@@H](C)C(=O)N[C@@H](CCCNC(=N)N)C(=O)NC(C(=O)NCC(N)=O)CSCC(=O)N[C@@H](Cc2ccc(O)cc2)C(=O)N(C)[C@@H](C)C(=O)N[C@@H](CC(N)=O)C(=O)N2CCC[C@H]2C(=O)N[C@@H](CO)C(=O)N[C@@H](CC(C)C)C(=O)N2CCC[C@H]2C(=O)N[C@@H](Cc2c[nH]c3ccccc23)C(=O)N[C@@H](CO)C(=O)N[C@@H](Cc2c[nH]c3ccccc23)C(=O)N1C (stereo partly shown) [Example 9110] ({CH2CO}-Y[NMeA]NPSLPWSW[NMeNle][NMeA]R[ξC]G-NH2; thioether N-14) | 4.78 to 72.9 nM | 0.385 to 6.74 nM | 
4 | CCCC[C@H]1C(=O)N(C)[C@@H](CCCC)C(=O)N[C@@H](CCCN)C(=O)N[C@H](C(=O)NCC(N)=O)CSCC(=O)N[C@@H](Cc2ccc(O)cc2)C(=O)N(C)[C@@H](C)C(=O)N[C@@H](CC(=O)O)C(=O)N2CCC[C@H]2C(=O)N[C@@H](Cc2c[nH]cn2)C(=O)N[C@@H](CCC(N)=O)C(=O)N2C[C@H](O)C[C@H]2C(=O)N[C@@H](Cc2c[nH]c3ccccc23)C(=O)N[C@@H](CO)C(=O)N[C@@H](Cc2c[nH]c3ccccc23)C(=O)N1C [Example 5114] ({CH2CO}-Y[NMeA]DPHQ[Hyp]WSW[NMeNle][NMeNle][Orn]CG-NH2; thioether N-14) | 0.158 to 4.71 nM | 0.385 to 6.74 nM | 
5 | CCCC[C@H]1C(=O)N(C)CC(=O)N[C@@H](CC(=O)O)C(=O)N[C@@H](C(C)C)C(=O)N(C)[C@@H](Cc2ccccc2)C(=O)N[C@@H](Cc2cccc3[nH]ccc23)C(=O)N(C)CC(=O)N[C@@H](Cc2c[nH]c3ccccc23)C(=O)N[C@@H](Cc2ccc(O)cc2)C(=O)N[C@@H](CC(C)C)C(=O)N[C@H](C(=O)NCC(N)=O)CSCC(=O)N[C@@H](Cc2ccccc2)C(=O)N(C)[C@@H](Cc2ccccc2)C(=O)N1C [Example 3110] ({CH2CO}-F[NMeF][NMeNle][Sar]DV[NMeF][Ala(indol-4-yl)][Sar]WYLCG-NH2; thioether N-13) |  | 6.76 to 30.3 nM | 0.158 to 4.71 nM
6 | CCCC[C@H]1C(=O)N(C)[C@@H](CCCC)C(=O)NC(CCCNC(=N)N)C(=O)N[C@H](C(=O)NCC(N)=O)CSCC(=O)N[C@@H](Cc2ccc(O)cc2)C(=O)N(C)[C@@H](C)C(=O)N[C@@H](CC(N)=O)C(=O)N2CCC[C@H]2C(=O)N[C@@H](CN)C(=O)N[C@@H](CC(C)C)C(=O)N2CCC[C@H]2C(=O)N[C@@H](Cc2c[nH]c3ccccc23)C(=O)N[C@@H](CO)C(=O)N[C@@H](Cc2c(-c3ccc(OCC)cc3)[nH]c3ccccc23)C(=O)N1C (stereo partly shown) [Example 7011] ({CH2CO}-Y[NMeA]NP[Dap]LPWS[X2][NMeNle][NMeNle][ξR]CG-NH2; thioether N-14) | 4.78 to 72.9 nM | 0.385 to 6.74 nM | 
7 | CCCC[C@@H]1NC(=O)CSC[C@@H](C(=O)NCC(N)=O)NC(=O)[C@H](CC(C)C)NC(=O)[C@H](Cc2ccc(O)cc2)NC(=O)[C@H](Cc2c[nH]c3ccccc23)NC(=O)CN(C)C(=O)[C@H](Cc2ccc(O)cc2)NC(=O)[C@H](Cc2ccccc2)N(C)C(=O)[C@H](C(C)C)NC(=O)[C@H](CC(=O)O)NC(=O)CN(C)C(=O)[C@H](CCCC)N(C)C(=O)[C@H](Cc2ccccc2)N(C)C1=O [Example 3171] (HELM PEPTIDE1{[O=C(C[*:3])[*:2]].[Nle].[meF].[CCCC[C@@H](C(=O)[*:2])N(C)[*:1]].[Sar].D.V.[meF].Y.[Sar].W.Y.L.C.G.[am]}$PEPTIDE1,PEPTIDE1,1:R3-14:R3$$$V2.0) |  | > 30.5 nM | > 74.3 nM

The next lines start with the values.

Row | IC50 [1, 3] | IC50 [2] | IC50 [1, 4] | SMILES
8 |  | 0.385 to 6.74 nM | 0.158 to 4.71 nM | CCCC[C@H]1C(=O)N(C)[C@@H](CCCC)C(=O)N[C@@H](C)C(=O)N[C@H](C(=O)NCC(N)=O)CSCC(=O)N[C@@H](Cc2ccc(O)cc2)C(=O)N(C)[C@@H](C)C(=O)N[C@@H](CC(=O)O)C(=O)N2CCC[C@H]2C(=O)N[C@@H](Cc2c[nH]cn2)C(=O)N[C@@H](CCCCN)C(=O)N2C[C@H](O)CC2C(=O)N[C@@H](Cc2c[nH]c3ccccc23)C(=O)N[C@@H](CO)C(=O)N[C@@H](Cc2c[nH]c3ccccc23)C(=O)N1C (stereo partly drawn) [Example 1202] ({CH2CO}-Y[NMeA]DPHK[ξPro(4R-OH)]WSW[NMeNle][NMeNle]ACG-NH2; thioether N-14)
9 |  | > 30.5 nM | > 74.3 nM | CCCC[C@H]1C(=O)N(C)CC(=O)N[C@@H](CC(=O)O)C(=O)N[C@@H](C(C)C)C(=O)N(C)[C@@H](Cc2ccccc2)C(=O)N[C@@H](Cc2ccc(O)cc2)C(=O)N(C)CC(=O)N[C@@H](Cc2c[nH]c3ccccc23)C(=O)N[C@@H](Cc2ccc(O)cc2)C(=O)N[C@@H](CC(C)C)C(=O)N[C@H](C(=O)NCC(N)=O)CSCC(=O)N[C@@H](Cc2cnc[nH]2)C(=O)N(C)[C@@H](Cc2ccccc2)C(=O)N1C [Example 3091] (HELM PEPTIDE1{[O=C(C[*:3])[*:2]].H.[meF].[CCCC[C@@H](C(=O)[*:2])N(C)[*:1]].[Sar].D.V.[meF].Y.[Sar].W.Y.L.C.G.[am]}$PEPTIDE1,PEPTIDE1,1:R3-14:R3$$$V2.0)
10 | 0.158 to 4.71 nM | 6.76 to 30.3 nM |  | CCCC[C@H]1C(=O)N(C)CC(=O)N[C@@H](CC(=O)O)C(=O)N[C@@H](C(C)C)C(=O)N(C)[C@@H](Cc2ccccc2)C(=O)N[C@@H](Cc2ccc(CN)cc2)C(=O)N(C)CC(=O)N[C@@H](Cc2c[nH]c3ccccc23)C(=O)N[C@@H](Cc2ccc(O)cc2)C(=O)N[C@@H](CC(C)C)C(=O)N[C@H](C(=O)NCC(N)=O)CSCC(=O)N[C@@H](Cc2ccccc2)C(=O)N(C)[C@@H](Cc2ccccc2)C(=O)N1C [Example 3524] ({CH2CO}-F[NMeF][NMeNle][Sar]DV[NMeF][Phe(4-CH2NH2)][Sar]WYLCG-NH2; thioether N-13)
11 | 4.78 to 72.9 nM | 6.76 to 30.3 nM |  | CCCC[C@H]1C(=O)N[C@@H](CCCNC(=N)N)C(=O)NC(C(=O)NCC(N)=O)CSCC(=O)N[C@@H](Cc2ccc(O)cc2)C(=O)N(C)[C@@H](C)C(=O)N[C@@H](CC(=O)O)C(=O)N2CCC[C@H]2C(=O)N[C@@H](Cc2cnc[nH]2)C(=O)N[C@@H](CC(C)C)C(=O)N2CCC[C@H]2C(=O)N[C@@H](Cc2c[nH]c3ccccc23)C(=O)N[C@@H](CO)C(=O)N[C@@H](Cc2c[nH]c3ccccc23)C(=O)N(C)[C@@H](CCOC)C(=O)N1C (stereo partly shown) [Example 9010] ({CH2CO}-Y[NMeA]DPHLPWSW[NMehSer](Me)[NMeNle]R[ξC]G-NH2; thioether N-14)
12 | 4.78 to 72.9 nM | 0.385 to 6.74 nM |  | CCCC[C@H]1C(=O)N(C)[C@@H](Cc2ccccc2)C(=O)N[C@@H](CN)C(=O)N[C@H](C(=O)NCC(N)=O)CSCC(=O)N[C@@H](Cc2ccc(O)cc2)C(=O)N(C)[C@@H](C)C(=O)N[C@@H](CC(N)=O)C(=O)N2CCC[C@H]2C(=O)N[C@@H](Cc2c[nH]cn2)C(=O)N[C@@H](CCC(=O)O)C(=O)N2C[C@H](O)C[C@H]2C(=O)N[C@@H](Cc2c[nH]c3ccccc23)C(=O)N[C@@H](CCN)C(=O)N[C@@H](Cc2c[nH]c3ccccc23)C(=O)N1C [Example 5147] ({CH2CO}-Y[NMeA]NPHE[Hyp]W[Dab]W[NMeNle][NMeF][Dap]CG-NH2; thioether N-14)
13 | 4.78 to 72.9 nM | 0.385 to 6.74 nM |  | CCCC[C@H]1C(=O)N(C)[C@@H](CCCC)C(=O)N[C@@H](CCC(=O)O)C(=O)N[C@H](C(=O)NCC(N)=O)CSCC(=O)N[C@@H](Cc2ccc(O)cc2)C(=O)N(C)[C@@H](C)C(=O)N[C@@H](CC(N)=O)C(=O)N2CCC[C@H]2C(=O)N[C@@H](Cc2c[nH]cn2)C(=O)N[C@@H](CCC(N)=O)C(=O)N2C[C@H](O)C[C@H]2C(=O)N[C@@H](Cc2c[nH]c3ccccc23)C(=O)N[C@@H](CO)C(=O)N[C@@H](Cc2c[nH]c3ccccc23)C(=O)N1C [Example 5126] ({CH2CO}-Y[NMeA]NPHQ[Hyp]WSW[NMeNle][NMeNle]ECG-NH2; thioether N-14)
14 | 4.78 to 72.9 nM | 6.76 to 30.3 nM |  | CCCC[C@H]1C(=O)N[C@@H](Cc2c[nH]c3ccccc23)C(=O)N[C@@H](CCN)C(=O)N[C@@H](Cc2c[nH]c3ccccc23)C(=O)N(C)[C@@H](CCCC)C(=O)N(C)[C@@H](CCCC)C(=O)N[C@@H](CC(C)C)C(=O)N[C@H](C(=O)NCC(N)=O)CSCC(=O)N[C@@H](Cc2ccc(O)cc2)C(=O)N(C)[C@@H](C)C(=O)N[C@@H](CC(N)=O)C(=O)N2CCC[C@H]2C(=O)N[C@@H](CN)C(=O)N[C@@H](CC(C)C)C(=O)N1C [Example 6041] ({CH2CO}-Y[NMeA]NP[Dap]L[NMeNle]W[Dab]W[NMeNle][NMeNle]LCG-NH2; thioether N-14)
